In PubChem BioAssay (NCI):
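A five-concentration, 48-hour dose response in 96-well plates underlies each endpoint, interpolated linearly between surrounding concentrations. GI50 marks 50% less growth. TGI denotes the concentration required for complete inhibition of growth.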

Tests used:
Assay in all cases: DTP human tumour cell line panel, 48 h
A549 NSCLC = tested on: A549 NSCLC
BT-549 breast = tested on: BT-549 breast
HT29 colon = tested on: HT29 colon
MOLT-4 leukemia = tested on: MOLT-4 leukemia
NCI-H226 lung = tested on: NCI-H226 lung
NCI-H460 lung = tested on: NCI-H460 lung
NCI/ADR-RES ovarian = tested on: NCI/ADR-RES ovarian
SK-OV-3 ovarian = tested on: SK-OV-3 ovarian
SW-620 colon = tested on: SW-620 colon
UACC-257 melanoma = tested on: UACC-257 melanoma

Row | SMILES | TGI (A549 NSCLC) [µM] | TGI (BT-549 breast) [µM] | TGI (HT29 colon) [µM] | TGI (MOLT-4 leukemia) [µM] | TGI (NCI-H226 lung) [µM] | TGI (NCI-H460 lung) [µM] | TGI (NCI/ADR-RES ovarian) [µM] | TGI (SK-OV-3 ovarian) [µM] | TGI (SW-620 colon) [µM] | TGI (UACC-257 melanoma) [µM] | GI50 (A549 NSCLC) [µM] | GI50 (MOLT-4 leukemia) [µM] | GI50 (NCI-H460 lung) [µM] | GI50 (NCI/ADR-RES ovarian) [µM] | GI50 (SW-620 colon) [µM]
1 | Nc1cc(C2CCCc3c2[nH]c2ccccc32)ccc1O (stereo not given) | > 100 | > 100 | > 100 | 91.2 | > 100 | > 100 | > 100 | > 100 | > 100 | > 100 | – | – | – | – | –
2 | Cc1cc2ncn(CC(=O)O)c2cc1C | > 100 | > 100 | > 100 | > 100 | > 100 | > 100 | > 100 | > 100 | > 100 | > 100 | – | – | – | – | –
3 | CCCC(=O)OCC1OC(n2cc(F)c(=O)[nH]c2=O)CC1OC(=O)CCC (stereo not given) | > 10 | > 10 | > 10 | > 10 | > 10 | > 10 | > 10 | > 10 | > 10 | > 10 | – | – | – | – | –
4 | CCN(CC)Cc1cc(N=Nc2c(O)ccc3c(N=Nc4ccc(O)c(CN(CC)CC)c4)c(O)ccc23)ccc1O | > 23.5 | 9.11 | 9.31 | 12.1 | 22.7 | 7.54 | 33 | 6.85 | 15.2 | 16.5 | – | – | – | – | –
5 | O=C(NC(=S)Nc1ccc(Br)cc1)c1ccc2c(c1)Sc1ccccc1O2 | > 100 | > 100 | > 100 | > 100 | > 100 | > 100 | > 100 | > 100 | > 100 | > 100 | – | – | – | – | –
6 | C(=N\NC1=NCCCCN1)/c1ccc2ccccc2c1 | > 100 | > 100 | 71.9 | 53.2 | 66.1 | 62.9 | > 100 | > 100 | 52.4 | 46.6 | – | – | – | – | –
7 | Nc1cc(OCC2CCCCC2)nc(N)n1 | > 100 | > 100 | > 100 | > 100 | > 100 | > 100 | > 100 | > 100 | > 100 | > 100 | – | – | – | – | –
8 | COc1cc2ncnc(NS(=O)(=O)c3cc4ccccc4s3)c2cc1OC | > 100 | > 100 | > 100 | > 100 | > 100 | > 100 | > 100 | > 100 | > 100 | > 100 | – | – | – | – | –
9 | O=C1CCCC2=C1CC1=C(CCCC1=O)N2c1ccc(Cl)cc1 | > 100 | > 100 | > 100 | > 100 | > 100 | > 100 | > 100 | > 100 | > 100 | > 100 | – | – | – | – | –
10 | CC1=C[P+](c2ccccc2)(c2ccccc2)c2ccccc2O1 | > 100 | > 100 | 15.7 | 21 | 46.2 | > 100 | > 100 | > 100 | > 100 | > 100 | – | – | – | – | –
11 | N=C1OC(CN2CCN(c3ccccc3)CC2)CN1C(=O)Nc1ccccc1 (stereo not given) | > 100 | > 100 | > 100 | > 100 | > 100 | > 100 | > 100 | > 100 | > 100 | > 100 | – | – | – | – | –
12 | Nc1cc(CO)cc(Nc2c3ccccc3nc3ccccc23)c1 | 38.9 | 27.7 | 28.8 | > 100 | 34.9 | > 100 | 35.8 | 29.5 | 26 | 28.5 | – | – | – | – | –
13 | ClCCCN1CCN(CCCl)CC1 | > 851 | 423 | > 818 | 110 | 879 | 356 | 628 | 166 | > 873 | > 1000 | 96.2 | 1.39 | 7.97 | 66.3 | 83.7
14 | O=c1c(NCc2ccccc2)c(C2(c3ccccc3F)SCCCS2)c1=O | > 100 | > 100 | > 100 | > 100 | > 100 | > 100 | > 100 | > 100 | > 100 | > 100 | – | – | – | – | –
15 | O=C1/C(=C/c2cccc([N+](=O)[O-])c2)N=C(c2ccccc2)N1c1nc2ccc(Sc3ccccc3)cc2[nH]1 | > 100 | > 100 | > 100 | > 100 | > 100 | > 100 | > 100 | > 100 | > 100 | > 100 | – | – | – | – | –
